Measured values: patent US12661329B2, “Methods of generating oligodendrocytes” (Hadasit Medical Research Services and Development Ltd., priority 2019, dated 2026)

How the values were obtained:
[1] = tested on: oligodendrocyte progenitors (OLPs) isolated from mouse cerebral cortex; conditions: cited from earlier work
hESC-derived pre-OL = assay: Terminal maturation of hESC-derived pre-oligodendrocytes into MBP+ oligodendrocytes (MBP immunostaining); format: cell-based, human; conditions: pre-OL on laminin
Method: Human ESCs (HES1 passages 21 to 42 with a normal karyotype) were cultured as described. hESC colonies were picked up by means of collagenase IV (1 mg/ml; GIBCO-BRL, Gaithersburg, MD) and placed into ultralow adherent culture dishes (Thermo Scientific Nunc HydroCell) to favor sphere aggregation. Spheres were cultured in NDM media consisting of Neural Differentiation Medium (Gibco) and N2B27 supplements with 20 ng/ml FGF-2. Spheres were first patterned with the dual-SMAD inhibitors LDN193189 (1 μM, Cayman Chemical, Ann Arbor, MI) and SB431542 (5 μM, SB; PeproTech Inc, Rocky Hill, NJ) until day 4 when SB431542 was withdrawn and the spheres were further cultured for additional 10 days in the presence LDN193189 and FGF-2. At day 14, the spheres were caudalized and ventralized using 0.1 μM all-trans retinoic acid and 0.5 μM purmorphamine, respectively (PeproTech Inc, Rocky Hill, NJ). At day 35, spheres were switched to modified SATO media, consisting of DMEM/F12, 10 ng/ml biotin, 60 ng/ml progesterone, 16 μg/ml putrescine, 20 μg/ml human insulin, 100 μg/ml apotransferrin, 5 ng/ml sodium selenite, 100 μg/ml bovine serum albumin (BSA), 60 μg/ml N-acetyl cysteine and 2 μg/ml forskolin. The medium was further supplemented with 20 ng/ml FGF-2, 0.5 μM Purmorphamine, 5 ng/ml NT3 and 200 nM ascorbic acid. Media was changed every 3 days for 6-7 weeks. For differentiation, spheres were dissected into small clusters mechanically and plated onto poly-D-lysine/laminin-coated plates and cultured in modified SATO media supplemented with 5 ng/ml NT3, 10 ng/ml IGF-1, 60 ng/ml T3, 100 ng/ml noggin and 200 nM ascorbic acid for 2-4 weeks. […] To block MEK/ERK signaling, PD0325901 (PeproTech Inc, Rocky Hill, NJ) was added freshly every other day to the cells to a concentration of 0.25-0.5 μM. […]

[2] = tested on: hESC-derived pre-OLs (MBP reporter cells); assay: Maturation of MBP-Tomato reporter pre-OLs under normoxia or after 48 h hypoxia (in vitro white matter injury model); format: cell-based, human; conditions: for proportion of MBP Tomato co-expressing oligodendrocytes: PD0325901 0.25 μM alone or combined, vs vehicle (FIG. 13); for proportion of MBP+ Tomato+ mature oligodendrocytes: noggin 100 ng/ml, DAPT 1 μM
Method: Human ESCs (HES1 passages 21 to 42 with a normal karyotype) were cultured as described. hESC colonies were picked up by means of collagenase IV (1 mg/ml; GIBCO-BRL, Gaithersburg, MD) and placed into ultralow adherent culture dishes (Thermo Scientific Nunc HydroCell) to favor sphere aggregation. Spheres were cultured in NDM media consisting of Neural Differentiation Medium (Gibco) and N2B27 supplements with 20 ng/ml FGF-2. Spheres were first patterned with the dual-SMAD inhibitors LDN193189 (1 μM, Cayman Chemical, Ann Arbor, MI) and SB431542 (5 μM, SB; PeproTech Inc, Rocky Hill, NJ) until day 4 when SB431542 was withdrawn and the spheres were further cultured for additional 10 days in the presence LDN193189 and FGF-2. At day 14, the spheres were caudalized and ventralized using 0.1 μM all-trans retinoic acid and 0.5 μM purmorphamine, respectively (PeproTech Inc, Rocky Hill, NJ). At day 35, spheres were switched to modified SATO media, consisting of DMEM/F12, 10 ng/ml biotin, 60 ng/ml progesterone, 16 μg/ml putrescine, 20 μg/ml human insulin, 100 μg/ml apotransferrin, 5 ng/ml sodium selenite, 100 μg/ml bovine serum albumin (BSA), 60 μg/ml N-acetyl cysteine and 2 μg/ml forskolin. The medium was further supplemented with 20 ng/ml FGF-2, 0.5 μM Purmorphamine, 5 ng/ml NT3 and 200 nM ascorbic acid. Media was changed every 3 days for 6-7 weeks. For differentiation, spheres were dissected into small clusters mechanically and plated onto poly-D-lysine/laminin-coated plates and cultured in modified SATO media supplemented with 5 ng/ml NT3, 10 ng/ml IGF-1, 60 ng/ml T3, 100 ng/ml noggin and 200 nM ascorbic acid for 2-4 weeks.
To block Notch signaling, the γ-secretase inhibitor, DAPT (N—[N-(3,5-difluorphenacetyl)-L-alanyl]-S-phenylglycine t-butyl ester), PeproTech Inc, Rocky Hill, NJ) was added freshly every other day to the cells to a concentration of 1 μM. To block MEK/ERK signaling, PD0325901 (PeproTech Inc, Rocky Hill, NJ) was added freshly every other day to the cells to a concentration of 0.25-0.5 μM.
Immunocytochemistry: Cells were fixed in 4% paraformaldehyde for 20 min, washed with PBS, blocked in blocking solution (5% donkey serum, 0.2% Triton X-100 in PBS) for 1 hour, and incubated for 2 hours with primary antibodies mouse anti-Olig2 (Millipore Corporation diluted 1:150) and mouse anti-Nkx-2.2 (Developmental Studies Hybridoma Bank, diluted 1:100). After washing, cells were incubated with secondary antibody, donkey anti-mouse Alexa-488 (Life Technologies, Inc.), for 1 hour before being mounted in VECTASHIELD™ mounting medium. For O4 staining, cells were blocked in blocking solution (5% donkey serum in DMEM/F12) for 1 hour, and incubated with mouse-anti O4 antibody (R&D System, diluted 1:100) for 2 hours. After washing, cells were fixed in 4% paraformaldehyde for 20 min, and incubated with secondary antibody, donkey anti-mouse Alexa-488 or Alexa-555 (Life Technologies, Inc.), for 1 hour before being mounted in VECTASHIELD™ mounting medium. For MBP staining, after fixation cells were washed with PBS+0.01% saponin, blocked in blocking solution (5% goat serum, 0.01% saponin in DMEM/F12) for 1 hour, and incubated with rat anti-MBP antibody (R&D System 1:100) for 2 hours. After washing, cells were incubated with secondary antibody, goat anti-rat antibody (Jackson laboratories, 1:100) for 1 hour before being mounted in VECTASHIELD™ mounting medium.
Plasmid construction and gene targeting: Oligonucleotide encoding the MBP-targeting sgRNA was custom ordered (hy.labs), hybridized and ligated into the BbsI restriction site of pX330-U6-Chimeric-BB-CBh-hSpCas9 vector (Addgene #42230). Homology arms from the human mbp locus were amplified from genomic DNA isolated from HES1 cells by nested PCR (5′ arm: Chr18:74692386-74693344, 3′ arm: Chr18:74691209-74692367). The PCR products was digested and ligated into PNTKV-2A-Tomato donor plasmid. Correct construction of each expression cassette was verified by sequence analysis. […]

EAE mice = assay: ICV delivery in chronic EAE, Biozzi mouse model of Multiple Sclerosis; format: in vivo, Biozzi ABH mice; conditions: ICV mini-osmotic pump, 5 μg per day, vs vehicle-treated EAE mice
Description: The Biozzi mouse model of Multiple Sclerosis: Biozzi ABH mice have genetic tendency to develop autoimmune diseases, and are used for many autoimmune models. The experimental autoimmune model in Biozzi mice is induced by immunization with spinal cord homogenate. Typically, mice develop an acute relapse, followed by remission, and after that a relapsing and progressive course of disease, resembling human multiple sclerosis (MS). […] In the chronic phase of EAE there are typical immunopathological features resembling progressive MS, such as meningeal infiltrates and development of tertiary lymphoid-like tissue, partial closing of the blood-brain-barrier, and reduction in lesion activity with increase in astrogliosis. Therefore, this model is considered one of the most clinical-relevant experimental models of MS. EAE was induced in Biozzi mice. Briefly, mice were inoculated subcutaneously at day 0 and day 7 in both hind flanks with 1 mg spinal cord homogenate emulsified in complete Freund's adjuvant supplemented with 3 μg M. Butyricum. Mice were monitored and scored daily in a blinded manner as follows: 0=normal, 1=limp tail, 2=impaired righting reflex, 3=hind-limb paresis; 4=complete hind-limb paralysis and 5=moribund/death. 10-14 days after the second relapse the mice were divided into two prospective experimental groups. […]

MEK-ERK signalling = conditions: mouse; earlier stage of differentiation of the oligodendroglial lineage; cited from earlier work
[3] = tested on: oligodendroglial differentiation; conditions: cited from earlier work
[4] = hypoxia 48 hours, then 3 weeks normoxia, vs vehicle

Molecule: Oc1nc(-c2ccc(C(F)(F)F)cc2)nc2c1CSCC2 [XAV939]
- differentiation of oligodendrocyte progenitors (OLPs) [1]: promote differentiation

Molecule: O=C(NOC[C@H](O)CO)c1ccc(F)c(F)c1Nc1ccc(I)cc1F [PD0325901]
- culture period after which maturation was obtained (hESC-derived pre-OL): 1 week
- branching of processes of MBP+ cells (hESC-derived pre-OL; 1 week): enhanced branching
- proportion of MBP mature oligodendrocytes / maturation into MBP+ cells (hESC-derived pre-OL; DAPT+noggin 2 weeks, PD0325901 1 week, vs vehicle): highly significant augmentation
- proportion of MBP Tomato co-expressing oligodendrocytes ([2]; hypoxia exposed, one week following hypoxia): increased proportion
- MBP+ Tomato+-expressing oligodendrocytes ([2]; hypoxia-exposed cultures, 0.25 μM or 0.5 μM for one week): marked increase
- branching of processes of MBP+ Tomato+ oligodendrocytes ([2]; hypoxia-exposed cultures, one week): marked increase
- number of MBP Tomato co-expressing oligodendrocytes ([2]; hypoxia-exposed, 0.25 μM, one week following hypoxia, vs vehicle (FIG. 11)): increased number
- number of MBP Tomato co-expressing oligodendrocytes ([2]; hypoxia-exposed, 0.5 μM, one week following hypoxia, vs vehicle (FIG. 12)): increased number
- proportion of MBP+ Tomato+ oligodendrocytes ([2]; normoxia, 0.25 μM or 0.5 μM for one week, vs vehicle): significant increase
- number of MBP Tomato co-expressing oligodendrocytes ([2]; normoxia, 0.25 μM, one week, vs vehicle (FIG. 11)): increased number
- number of MBP Tomato co-expressing oligodendrocytes ([2]; normoxia, 0.5 μM, one week, vs vehicle (FIG. 12)): increased number
- proportion of MBP Tomato co-expressing oligodendrocytes ([2]; normoxia, one week): increased proportion
- branching of the processes of MBP+ oligodendrocytes ([2]; normoxia, one week): significantly enhanced
- effect on pre-OLs maturation compared with noggin or DAPT ([2]; one week of treatment vs two-three weeks with noggin and/or DAPT): more prominent
- disease course: mean cumulative score of disease (EAE mice; 28 days from implantation): significantly milder
- disease course: final clinical score at day of termination (EAE mice; 28 days): significantly milder
- oligodendrocyte differentiation (MEK-ERK signalling): augment oligodendrocyte differentiation

Molecule: C[C@H](NC(=O)Cc1cc(F)cc(F)c1)C(=O)N[C@H](C(=O)OC(C)(C)C)c1ccccc1 [DAPT, N—[N-(3,5-difluorphenacetyl)-L-alanyl]-S-phenylglycine t-butyl ester]
- proportion of MBP+ Tomato+ mature oligodendrocytes [2, 4]: increased differentiation
- proportion of MBP+ Tomato+ mature oligodendrocytes ([2]; normoxia, 3 weeks, vs vehicle): did not increase

B1: noggin: BMP antagonist (protein, UniProt Q13253 28-232, looked up)
Noggin: QHYLHIRPAPSDNLPLVDLIEHPDPIFDPKEKDLNETLLRSLLGGHYDPGFMATSPPEDRPGGGGGAAGGAEDLAELDQLLRQRPSGAMPSEIKGLEFSEGLAQGKKQRLSKKLRRKLQMWLWSQTFCPVLYAWNDLGSRFWPRYVKVGSCFSKRSCSVPEGMVCKPSKSVHLTVLRWRCQRRGGQRCGWIPIQYPIISECKCSC
- proportion of MBP+ Tomato+ mature oligodendrocytes [2, 4]: substantial increase
- proportion of MBP+ Tomato+ mature oligodendrocytes ([2]; normoxia, 3 weeks, vs vehicle): substantial increase
- oligodendroglial differentiation and maturation [3]: enhance oligodendroglial differentiation and maturation
